{"source": "patent US20210077514A1", "about": "“Nutraceutical Composition for Improving Overall Health” (priority 2019, published 2021)", "origin": "cited, not measured here", "key": {"[1]": {"details": "in vivo"}, "photoreceptor": {"tested_on": "photoreceptor", "details": "in vivo"}, "[2]": {"details": "AD-model mice"}, "[3]": {"experiment": "not given", "remark": "listed apart in the source"}, "[4]": {"details": "FXN-KO mouse"}, "[5]": {"experiment": "not given", "remark": "listed apart in the source"}, "[6]": {"details": "aged mice, one week's treatment"}, "[7]": {"details": "aged mice"}, "[8]": {"details": "chronic heart failure patients"}, "senescent cells": {"tested_on": "senescent cells", "details": "H2O2-induced, via activation of AMPK pathway"}, "HepG2 cells": {"tested_on": "HepG2 cells", "details": "HepG2 cells and primary hepatocytes"}, "[9]": {"details": "from the liver into the bile"}, "[10]": {"tested_on": "MCF-7 breast cancer cells"}, "[11]": {"details": "in vivo", "remark": "listed apart in the source"}, "adipocytes": {"tested_on": "adipocytes", "details": "mouse, in vivo"}, "[12]": {"details": "patients with T2DM"}, "[13]": {"details": "aging mice, long-term treatment"}, "[14]": {"details": "compared to canthaxanthin and β-carotene"}, "lipid peroxidation": {"tested_on": "lipid peroxidation", "details": "ethanol induced gastric ulcer rats and skin cancer rats; astaxanthin and its esters"}, "[15]": {"tested_on": "superoxide dismutase, thioredoxin reductase, paraoxonase", "details": "oxidative-induced rabbits, diet supplement"}, "[16]": {"details": "spontaneously hypertensive corpulent rats; mice on high fat plus high fructose diets"}, "[17]": {"details": "young healthy adult female human subjects"}, "[18]": {"experiment": "not given", "remark": "listed apart in the source"}, "[19]": {"details": "diabetic mice vs control group"}, "[20]": {"details": "0.08% astaxanthin fed, vs control group"}, "[21]": {"details": "after 3 years"}, "[22]": {"details": "8-10 years after therapy"}, "[23]": {"tested_on": "diploid fibroblasts and mesenchymal stem cells"}, "[24]": {"details": "mouse model"}, "[25]": {"experiment": "not given", "remark": "listed apart in the source"}, "[26]": {"details": "type 2 diabetes and mild to moderate depression"}, "[27]": {"details": "850 mg twice daily, mean follow-up ~3 years"}}, "note": "Where two headings read alike, the source gives them in different places.", "data": [{"smiles": "NC(=O)c1ccc[n+]([C@@H]2O[C@H](COP(=O)([O-])O)[C@@H](O)[C@H]2O)c1", "note": "[Nicotinamide Mononucleotide, nicotinamide mononucleotide]", "values": [{"measurement": "NAD+ levels within the heart", "setting": "[1]", "result": "increase the NAD+ levels within the heart"}, {"measurement": "protection of heart from I/R injuries", "setting": "[1]", "result": "protect the heart from injuries of I/R"}, {"measurement": "degeneration of photoreceptor", "setting": "photoreceptor", "result": "prevent degeneration of photoreceptor"}, {"measurement": "cognition", "setting": "[2]", "result": "restore cognition within AD-model mice"}, {"measurement": "homeostasis of mitochondria and biochemical markers of muscle-health", "setting": "22 months old mice, to level of six months old mice", "result": "restore the homeostasis of mitochondria"}, {"measurement": "age-related physiological declines", "setting": "old mice", "result": "reduce the age-related physiological declines"}, {"measurement": "impaired tolerance of glucose", "setting": "[3]; only one dose", "result": "sufficient in normalizing the impaired tolerance of the glucose"}, {"measurement": "levels of NAD+", "setting": "[3]; over sixty minutes", "result": "significant rises within the levels of NAD+"}, {"measurement": "cardiac function", "setting": "[4]", "result": "restored near the normal levels"}, {"measurement": "intolerance of glucose", "setting": "[5]; in vivo", "result": "reversal of the intolerance of glucose"}, {"measurement": "levels of NAD+", "setting": "[5]; liver and muscle", "result": "significantly increased"}, {"measurement": "cells after DNA damage repair", "setting": "[6]", "result": "indistinguishable from the cells of the young mice"}, {"measurement": "aortic stiffness", "setting": "[7]", "result": "normalizing the aortic stiffness"}, {"measurement": "death rate of brain cell", "setting": "brain cell", "result": "lower the death rate of brain cell"}]}, {"smiles": "COc1ccc2cc3[n+](cc2c1OC)CCc1cc2c(cc1-3)OCO2", "note": "[berberine]", "values": [{"measurement": "frequency and complexity of ventricular premature complexes", "setting": "[8]", "result": "decreased the frequency and complexity of ventricular premature complexes"}, {"measurement": "left ventricular ejection fraction", "setting": "[8]", "result": "increased the left ventricular ejection fraction"}, {"measurement": "development of senescence", "setting": "senescent cells", "result": "significantly prevented the development of senescence"}, {"measurement": "cholesterol and triglyceride synthesis", "setting": "HepG2 cells", "result": "inhibit cholesterol and triglyceride synthesis"}, {"measurement": "cholesterol excretion", "setting": "[9]", "result": "increases cholesterol excretion from the liver into the bile"}, {"measurement": "proliferation of MCF-7 breast cancer cells", "setting": "[10]", "result": "inhibits the proliferation"}, {"measurement": "serum cholesterol, triglycerides and LDL-C", "setting": "[11]", "result": "reduced serum cholesterol, triglycerides and LDL-C"}, {"measurement": "adipocytes", "setting": "adipocytes", "result": "shrunk adipocytes"}, {"measurement": "alanine and aspartate transaminase levels", "setting": "[12]", "result": "reduces alanine and aspartate transaminase levels"}]}, {"smiles": "CC1=C(/C=C/C(C)=C/C=C/C(C)=C/C=C/C=C(C)/C=C/C=C(C)/C=C/C2=C(C)C(=O)[C@@H](O)CC2(C)C)C(C)(C)C[C@H](O)C1=O", "note": "[astaxanthin]", "values": [{"measurement": "age-related oxidative stress and inflammatory response", "setting": "[13]", "result": "prevented the accumulation of age-related oxidative stress and inflammatory response"}, {"measurement": "antitumor activity", "setting": "[14]", "result": "significant antitumor activity"}, {"measurement": "anti-lipid peroxidation activity", "setting": "lipid peroxidation", "result": 80, "unit": "%"}, {"measurement": "paraoxonase activity in serum", "setting": "[15]", "result": "inhibited"}, {"measurement": "superoxide dismutase and thioredoxin reductase activity in serum", "setting": "[15]", "result": "enhanced activity of superoxide dismutase and thioredoxin reductase"}, {"measurement": "insulin sensitivity", "setting": "[16]", "result": "Improved insulin sensitivity"}, {"measurement": "DNA oxidative damage biomarker", "setting": "[17]", "result": "reduced the DNA oxidative damage biomarker"}, {"measurement": "activity of natural killer cells", "setting": "[18]; eight week supplementation", "result": "improved activity of natural killer cells"}, {"measurement": "blood levels of astaxanthin", "setting": "[18]; in vivo", "result": "increased blood levels of astaxanthin"}, {"measurement": "urinary albumin level", "setting": "[19]", "result": "significantly lower than the control group"}, {"measurement": "heart mitochondrial membrane potential and contractility index", "setting": "[20]", "result": "higher heart mitochondrial membrane potential and contractility index"}]}, {"smiles": "Oc1ccc(C=Cc2cc(O)cc(O)c2)cc1", "note": "[resveratrol]", "values": [{"measurement": "growth rate of leukaemia cells", "setting": "leukaemia cells", "result": "stop the growth rate of leukaemia cells"}, {"measurement": "uptake of glutamate", "setting": "glial cells", "result": "increase the uptake of glutamate"}]}, {"smiles": "CN(C)C(=N)N=C(N)N", "note": "[metformin]", "values": [{"measurement": "body weight, LDL-cholesterol, atherosclerosis progression", "setting": "[21]", "result": "reductions in body weight, LDL-cholesterol"}, {"measurement": "carotid artery intima-media thickness (primary outcome)", "setting": "[21]", "result": "no difference in the primary outcome"}, {"measurement": "cognitive function, impact of long-term use", "setting": "[22]", "result": "did not show negative impact"}, {"measurement": "aging in human cells", "setting": "[23]; chronic low-dose treatment", "result": "delays aging in human cells"}, {"measurement": "expression of GPx7", "setting": "[23]; low-dose treatment, by activating Nrf2", "result": "upregulates the expression of endoplasmic reticulum-localized GPx7"}, {"measurement": "lifespan", "setting": "nematodes", "result": "extends the lifespan of nematodes"}, {"measurement": "lifespan and health span", "setting": "[24]", "result": "extends both lifespan and health span"}, {"measurement": "reduction of likelihood of CVD", "setting": "[25]; otherwise healthy individuals", "result": 6, "unit": "%"}, {"measurement": "reduction of likelihood of CVD", "setting": "[25]; those at high cardiovascular risk", "result": 48, "unit": "%"}, {"measurement": "reduction of likelihood of CVD", "setting": "[25]; those at risk of frailty", "result": 18, "unit": "%"}, {"measurement": "depressive symptoms", "setting": "[26]", "result": "improved depressive symptoms"}, {"measurement": "reduction of incidence of T2DM compared to placebo", "setting": "[27]", "result": 31, "unit": "%"}]}]}
